Assay results published in US20170320870A1 (Medical Research Council Technology, priority 2009, published 2017).

Target: T1, LRRK2 wild type (recombinant human, catalytic domain amino acids 970-2527, GST-tagged) (Homo sapiens, UniProt Q5S007)
T1 construct: The wild type used was recombinant human, catalytic domain (amino acids 970-2527) GST-tagged, expressed in insect cells; GST; purchased Invitrogen Corporation PV4873; host or cells: insect cells
Test: LRRK2 wild type protein kinase assay ([γ-33P] ATP, peptide substrate […]), IC50
Format: biochemical
Settings: LRRK2 (variant not given); read-out: Potency score, LRRK2 IC50
How it was run: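 Insect-cell-expressed enzyme (~5 nM), no activation, incubated 180 min at ~21 °C in 50 mM Tris-HCl pH 7.5, 0.1 mM EGTA, 1 mM DTT, 10 mM MgCl2 with 100 μM peptide substrate and [γ-33P]ATP. Reaction stopped with orthophosphoric acid, captured on P81 filters and counted; IC50 from 10 concentrations in duplicate.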

T1 sequence (Q5S007 970-2527): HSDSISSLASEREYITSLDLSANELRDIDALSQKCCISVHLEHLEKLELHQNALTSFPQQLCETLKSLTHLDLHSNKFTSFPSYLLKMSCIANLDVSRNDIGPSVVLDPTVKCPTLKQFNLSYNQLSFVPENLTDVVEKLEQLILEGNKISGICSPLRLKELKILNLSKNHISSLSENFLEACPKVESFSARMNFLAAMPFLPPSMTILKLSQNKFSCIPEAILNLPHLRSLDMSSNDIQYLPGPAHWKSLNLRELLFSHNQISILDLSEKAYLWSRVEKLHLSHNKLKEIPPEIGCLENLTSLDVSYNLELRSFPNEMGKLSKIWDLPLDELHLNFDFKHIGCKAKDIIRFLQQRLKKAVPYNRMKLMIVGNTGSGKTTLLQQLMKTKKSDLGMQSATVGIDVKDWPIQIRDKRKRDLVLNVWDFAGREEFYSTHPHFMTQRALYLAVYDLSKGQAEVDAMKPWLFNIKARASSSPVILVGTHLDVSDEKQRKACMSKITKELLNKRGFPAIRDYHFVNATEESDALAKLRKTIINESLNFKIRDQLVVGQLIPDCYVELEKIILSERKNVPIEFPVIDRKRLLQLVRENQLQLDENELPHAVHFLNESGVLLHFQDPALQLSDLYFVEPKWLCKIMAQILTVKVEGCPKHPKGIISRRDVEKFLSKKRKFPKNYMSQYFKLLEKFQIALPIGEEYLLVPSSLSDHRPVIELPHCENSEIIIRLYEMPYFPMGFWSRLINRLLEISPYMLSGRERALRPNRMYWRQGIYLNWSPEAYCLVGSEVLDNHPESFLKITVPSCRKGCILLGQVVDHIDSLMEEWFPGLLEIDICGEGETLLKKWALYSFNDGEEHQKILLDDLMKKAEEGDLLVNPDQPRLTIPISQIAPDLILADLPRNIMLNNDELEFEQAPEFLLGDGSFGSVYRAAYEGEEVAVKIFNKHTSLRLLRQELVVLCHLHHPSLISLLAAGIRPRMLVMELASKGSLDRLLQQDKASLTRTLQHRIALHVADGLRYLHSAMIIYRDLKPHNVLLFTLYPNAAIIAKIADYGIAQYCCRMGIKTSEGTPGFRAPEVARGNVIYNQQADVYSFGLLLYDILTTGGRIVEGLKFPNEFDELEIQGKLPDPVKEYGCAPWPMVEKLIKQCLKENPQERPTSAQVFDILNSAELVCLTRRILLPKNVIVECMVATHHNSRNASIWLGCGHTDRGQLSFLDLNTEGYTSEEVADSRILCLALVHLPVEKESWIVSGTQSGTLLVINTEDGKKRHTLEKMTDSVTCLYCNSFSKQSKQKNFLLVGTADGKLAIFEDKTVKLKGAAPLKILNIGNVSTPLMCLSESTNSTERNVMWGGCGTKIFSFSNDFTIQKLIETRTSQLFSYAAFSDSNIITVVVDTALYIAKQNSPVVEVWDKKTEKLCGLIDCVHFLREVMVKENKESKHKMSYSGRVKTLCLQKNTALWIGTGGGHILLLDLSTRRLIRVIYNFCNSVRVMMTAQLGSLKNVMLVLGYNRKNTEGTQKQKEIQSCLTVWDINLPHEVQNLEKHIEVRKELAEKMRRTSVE

Row | IC50 | Compound
1 | 1000 to 10000 nM | Cc1n[nH]c2ccnc(NCc3ccco3)c12 [Example 303, Furan-2-ylmethyl-(3-methyl-1H-pyrazolo[4,3-c]pyridin-4-yl)-amine]
2 | 1000 to 10000 nM | Cc1n[nH]c2ccnc(NCC3CCCO3)c12 (stereo not shown) [Example 304, (3-Methyl-1H-pyrazolo[4,3-c]pyridin-4-yl)-(tetrahydro-furan-2-ylmethyl)-amine]
3 | 100 to 1000 nM | Cc1n[nH]c2ccnc(Nc3ccc(Cl)c(Cl)c3)c12 [Example 305, (3,4-Dichloro-phenyl)-(3-methyl-1H-pyrazolo[4,3-c]pyridin-4-yl)-amine]
4 | 100 to 1000 nM | Cc1n[nH]c2ccnc(Nc3ccc(Cl)cc3Cl)c12 [Example 306, (2,4-Dichloro-phenyl)-(3-methyl-1H-pyrazolo[4,3-c]pyridin-4-yl)-amine]
5 | 100 to 1000 nM | Cc1n[nH]c2ccnc(Nc3ccc(F)c(Cl)c3)c12 [Example 307, (3-Chloro-4-fluoro-phenyl)-(3-methyl-1H-pyrazolo[4,3-c]pyridin-4-yl)-amine]
6 | 100 to 1000 nM | Cc1n[nH]c2ccnc(Nc3cc(F)ccc3F)c12 [Example 308, (2,5-Difluoro-phenyl)-(3-methyl-1H-pyrazolo[4,3-c]pyridin-4-yl)-amine]
7 | 100 to 1000 nM | Cc1n[nH]c2ccnc(Nc3ccccc3Cl)c12 [Example 309, (2-Chloro-phenyl)-(3-methyl-1H-pyrazolo[4,3-c]pyridin-4-yl)-amine]
8 | 100 to 1000 nM | Cc1n[nH]c2ccnc(Nc3ccc(Cl)cc3)c12 [Example 310, (4-Chloro-phenyl)-(3-methyl-1H-pyrazolo[4,3-c]pyridin-4-yl)-amine]
9 | 100 to 1000 nM | Cc1n[nH]c2ccnc(Nc3ccc(F)cc3)c12 [Example 311, (4-Fluoro-phenyl)-(3-methyl-1H-pyrazolo[4,3-c]pyridin-4-yl)-amine]
10 | 1000 to 10000 nM | Cc1n[nH]c2ccnc(NCc3ccccn3)c12 [Example 312, (3-Methyl-1H-pyrazolo[4,3-c]pyridin-4-yl)-pyridin-2-ylmethyl-amine]
11 | 100 to 1000 nM | Cc1n[nH]c2ccnc(Nc3ccc4ncsc4c3)c12 [Example 313, Benzothiazol-6-yl-(3-methyl-1H-pyrazolo[4,3-c]pyridin-4-yl)-amine]
12 | 1000 to 10000 nM | Cc1n[nH]c2ccnc(NCc3cccc(Cl)c3)c12 [Example 314, (3-Chloro-benzyl)-(3-methyl-1H-pyrazolo[4,3-c]pyridin-4-yl)-amine]
13 | 100 to 1000 nM | Cc1n[nH]c2ccnc(NCc3ccccc3Cl)c12 [Example 315, (2-Chloro-benzyl)-(3-methyl-1H-pyrazolo[4,3-c]pyridin-4-yl)-amine]
14 | 1000 to 10000 nM | Cc1n[nH]c2ccnc(NCc3ccc(F)cc3)c12 [Example 316, (4-Fluoro-benzyl)-(3-methyl-1H-pyrazolo[4,3-c]pyridin-4-yl)-amine]
15 | 1000 to 10000 nM | Cc1n[nH]c2ccnc(NCc3cccc(F)c3)c12 [Example 317, (3-Fluoro-benzyl)-(3-methyl-1H-pyrazolo[4,3-c]pyridin-4-yl)-amine]
16 | < 100 nM | Cc1ccc(Nc2nccc3[nH]nc(C)c23)cc1 [Example 318, (4-Methyl-phenyl)-(3-methyl-1H-pyrazolo[4,3-c]pyridin-4-yl)-amine]
17 | 100 to 1000 nM | Cc1cccc(Nc2nccc3[nH]nc(C)c23)c1 [Example 319, (3-Methyl-phenyl)-(3-methyl-1H-pyrazolo[4,3-c]pyridin-4-yl)-amine]
18 | 100 to 1000 nM | Cc1ccccc1Nc1nccc2[nH]nc(C)c12 [Example 320, (2-Methyl-phenyl)-(3-methyl-1H-pyrazolo[4,3-c]pyridin-4-yl)-amine]
19 | 100 to 1000 nM | Cc1n[nH]c2ccnc(Nc3cccc(CO)c3)c12 [Example 321, [3-(3-Methyl-1H-pyrazolo[4,3-c]pyridin-4-ylamino)-phenyl]-methanol]
20 | 1000 to 10000 nM | Cc1n[nH]c2ccnc(Nc3ccc(S(C)(=O)=O)cc3)c12 [Example 322, (4-Methanesulfonyl-phenyl)-(3-methyl-1H-pyrazolo[4,3-c]pyridin-4-yl)-amine]
21 | 1000 to 10000 nM | Cc1cc(C)n(CCNc2nccc3[nH]nc(C)c23)n1 [Example 323, [2-(3,5-Dimethyl-pyrazol-1-yl)-ethyl]-(3-methyl-1H-pyrazolo[4,3-c]pyridin-4-yl)-amine]
22 | 1000 to 10000 nM | Cc1n[nH]c2ccnc(NCCCN3CCCC3=O)c12 [Example 324, 1-[3-(3-Methyl-1H-pyrazolo[4,3-c]pyridin-4-ylamino)-propyl]-pyrrolidin-2-one]
23 | 1000 to 10000 nM | Cc1n[nH]c2ccnc(NCC3CCCCC3)c12 [Example 325, Cyclohexylmethyl-(3-methyl-1H-pyrazolo[4,3-c]pyridin-4-yl)-amine]
24 | 1000 to 10000 nM | Cc1n[nH]c2ccnc(NCc3ccc(C(F)(F)F)cc3)c12 [Example 326, (3-Methyl-1H-pyrazolo[4,3-c]pyridin-4-yl)-4-(4-trifluoromethyl-benzyl)-amine]
25 | 1000 to 10000 nM | Cc1n[nH]c2ccnc(NCc3ccc(C#N)cc3)c12 [Example 327, 4-[(3-Methyl-1H-pyrazolo[4,3-c]pyridin-4-ylamino)-methyl]-benzonitrile]

Row | IC50 | Compound
26 | 1000 to 10000 nM | Cc1nc2cc(Nc3nccc4[nH]nc(C)c34)ccc2s1 [Example 328, (2-Methyl-benzothiazol-5-yl)-(3-methyl-1H-pyrazolo[4,3-c]pyridin-4-yl)-amine]
27 | 100 to 1000 nM | Cc1n[nH]c2ccnc(NCCc3ccc(Cl)cc3)c12 [Example 329, [2-(4-Chloro-phenyl)-ethyl]-(3-methyl-1H-pyrazolo[4,3-c]pyridin-4-yl)-amine]
28 | < 100 nM | Cc1n[nH]c2ccnc(NCCc3ccccc3Cl)c12 [Example 330, [2-(2-Chloro-phenyl)-ethyl]-(3-methyl-1H-pyrazolo[4,3-c]pyridin-4-yl)-amine]
29 | 100 to 1000 nM | Cc1n[nH]c2ccnc(NCCc3cccc(Cl)c3)c12 [Example 331, [2-(3-Chloro-phenyl)-ethyl]-(3-methyl-1H-pyrazolo[4,3-c]pyridin-4-yl)-amine]
30 | 100 to 1000 nM | Cc1n[nH]c2ccnc(NCCc3ccccc3F)c12 [Example 332, [2-(2-Fluoro-phenyl)-ethyl]-(3-methyl-1H-pyrazolo[4,3-c]pyridin-4-yl)-amine]
31 | 100 to 1000 nM | Cc1n[nH]c2ccnc(NCCc3cccc(F)c3)c12 [Example 333, [2-(3-Fluoro-phenyl)-ethyl]-(3-methyl-1H-pyrazolo[4,3-c]pyridin-4-yl)-amine]
32 | 100 to 1000 nM | Cc1n[nH]c2ccnc(NCCc3ccc(F)cc3)c12 [Example 334, [2-(4-Fluoro-phenyl)-ethyl]-(3-methyl-1H-pyrazolo[4,3-c]pyridin-4-yl)-amine]
33 | 100 to 1000 nM | Cc1n[nH]c2ccnc(NCCc3ccccc3)c12 [Example 335]
34 | 1000 to 10000 nM | COc1ccccc1CNc1nccc2[nH]nc(C)c12 [Example 336]
35 | 1000 to 10000 nM | Cc1n[nH]c2ccnc(NCCNc3ccccc3)c12 [Example 337, N-(3-Methyl-1H-pyrazolo[4,3-c]pyridin-4-yl)-N′-phenyl-ethane-1,2-diamine]
36 | 1000 to 10000 nM | COc1ccc(CCNc2nccc3[nH]nc(C)c23)cc1 [Example 338, [2-(4-Methoxy-phenyl)-ethyl]-(3-methyl-1H-pyrazolo[4,3-c]pyridin-4-yl)-amine]
37 | 1000 to 10000 nM | COc1ccccc1CCNc1nccc2[nH]nc(C)c12 [Example 339, [2-(2-Methoxy-phenyl)-ethyl]-(3-methyl-1H-pyrazolo[4,3-c]pyridin-4-yl)-amine]
38 | 1000 to 10000 nM | CCOc1ccccc1CNc1nccc2[nH]nc(C)c12 [Example 340, (2-Ethoxy-benzyl)-(3-methyl-1H-pyrazolo[4,3-c]pyridin-4-yl)-amine]
39 | 1000 to 10000 nM | Cc1n[nH]c2ccnc(Nc3cccc(OC(C)C)c3)c12 [Example 341, (3-Isopropoxy-phenyl)-(3-methyl-1H-pyrazolo[4,3-c]pyridin-4-yl)-amine]
40 | 1000 to 10000 nM | Cc1n[nH]c2ccnc(NCCc3c[nH]c4ccccc34)c12 [Example 342, [2-(1H-Indol-3-yl)-ethyl]-(3-methyl-1H-pyrazolo[4,3-c]pyridin-4-yl)-amine]
41 | 1000 to 10000 nM | Cc1n[nH]c2ccnc(NCCC(C)C)c12 [Example 343, (3-Methyl-butyl)-(3-methyl-1H-pyrazolo[4,3-c]pyridin-4-yl)-amine]
42 | 1000 to 10000 nM | Cc1ccc(Nc2nccc3[nH]nc(C)c23)cn1 [Example 344, (3-Methyl-1H-pyrazolo[4,3-c]pyridin-4-yl)-(6-methyl-pyridin-3-yl)-amine]
43 | 1000 to 10000 nM | Cc1n[nH]c2ccnc(NCCCn3cccn3)c12 [Example 345, (3-Methyl-1H-pyrazolo[4,3-c]pyridin-4-yl)-(3-pyrazol-1-yl-propyl)-amine]
44 | 100 to 1000 nM | Cc1n[nH]c2ccnc(Nc3ccc(C(F)(F)F)cc3)c12 [Example 346, (3-Methyl-1H-pyrazolo[4,3-c]pyridin-4-yl)-(4-trifluoromethyl-phenyl)-amine]
45 | 100 to 1000 nM | Cc1n[nH]c2ccnc(Nc3cccc(C#N)c3)c12 [Example 347, 3-(3-Methyl-1H-pyrazolo[4,3-c]pyridin-4-ylamino)-benzonitrile]
46 | 1000 to 10000 nM | Cc1n[nH]c2ccnc(Nc3ccc(C#N)cc3)c12 [Example 348, 4-(3-Methyl-1H-pyrazolo[4,3-c]pyridin-4-ylamino)-benzonitrile]
47 | 100 to 1000 nM | Cc1n[nH]c2ccnc(Nc3ccc4ncoc4c3)c12 [Example 349, Benzoxazol-6-yl-(3-methyl-1H-pyrazolo[4,3-c]pyridin-4-yl)-amine]
48 | 1000 to 10000 nM | Cc1cc(C)c(Nc2nccc3[nH]nc(C)c23)cn1 [Example 350, (4,6-Dimethyl-pyridin-3-yl)-(3-methyl-1H-pyrazolo[4,3-c]pyridin-4-yl)-amine]
49 | 100 to 1000 nM | Cc1n[nH]c2ccnc(NCCc3cccnc3)c12 [Example 351, (3-Methyl-1H-pyrazolo[4,3-c]pyridin-4-yl)-(2-pyridin-3-yl-ethyl)-amine]
